Source: ChEMBL document CHEMBL1137070, “Novel galbonolide derivatives as IPC synthase inhibitors: design, synthesis and in vitro antifungal activities” (2004)
Converted amounts (≈) assume the structure as drawn.

Experiments:
Assay type in all cases: functional
Cryptococcus neoformans [1] = assay: In vitro antifungal activity against Cryptococcus neoformans ATCC 9011; activity expressed as minimum inhibitory concentration
Aspergillus fumigatus [2] = assay: In vitro antifungal activity against Aspergillus fumigatus TIMM1776; activity expressed as minimum inhibitory concentration
Candida albicans [3] = assay: In vitro antifungal activity against Candida albicans ATCC 90028; activity expressed as minimum inhibitory concentration
Saccharomyces cerevisiae [4] = assay: In vitro antifungal activity against Saccharomyces cerevisiae Y9; activity expressed as minimum inhibitory concentration
Cryptococcus neoformans [5] = assay: In vitro antifungal activity against Cryptococcus neoformans ATCC 9011
Candida albicans [6] = assay: In vitro antifungal activity against Candida albicans ATCC 90028
Saccharomyces cerevisiae [7] = assay: In vitro antifungal activity against Saccharomyces cerevisiae Y9
Aspergillus fumigatus [8] = assay: In vitro antifungal activity against Aspergillus fumigatus TIMM1776

SMILES | MIC (Cryptococcus neoformans [1]) | MIC (Aspergillus fumigatus [2]) | MIC (Candida albicans [3]) | MIC (Saccharomyces cerevisiae [4]) | IC80 (Cryptococcus neoformans [5]) | IC80 (Candida albicans [6]) | IC80 (Saccharomyces cerevisiae [7]) | IC80 (Aspergillus fumigatus [8])
C=C1/C=C(\C)[C@H](CC)OC(=O)[C@H](C)C(=O)[C@@](O)(CO)C/C(C)=C/[C@@H](C)C1 | > 64 µg/mL | > 64 µg/mL | > 64 µg/mL | > 64 µg/mL | 32 µg/mL (≈ 87.8 µM) | – | – | –
C=C1/C=C(\C)[C@H](CC)OC(=O)[C@H](C)C(=O)[C@@](O)(CO)C/C(Cl)=C/[C@@H](C)C1 | 16 µg/mL (≈ 41.6 µM) | > 64 µg/mL | > 64 µg/mL | – | 0.15 µg/mL (≈ 0.39 µM) | 64 µg/mL (≈ 166 µM) | – | –
C=C1/C=C(\C)[C@H](CC)OC(=O)[C@H](C)C(=O)[C@@](O)(CO)[C@H](OC)/C=C/[C@@H](C)C1 | > 64 µg/mL | > 64 µg/mL | > 64 µg/mL | – | – | – | – | –
C=C1/C=C(\C)[C@H](CC)OC(=O)[C@H](C)C(=O)[C@@](O)(CO)C/C=C/[C@@H](C)C1 | > 64 µg/mL | > 64 µg/mL | > 64 µg/mL | – | – | – | – | –
C=C1/C=C(\C)[C@H](CC)OC(=O)[C@H](C)C(=O)[C@@](O)(CO)C/C(OCC(F)(F)F)=C/[C@@H](C)C1 | 32 µg/mL (≈ 71.4 µM) | 64 µg/mL (≈ 143 µM) | > 64 µg/mL | – | – | – | – | –
C=C1/C=C(\C)[C@H](CC)OC(=O)[C@H](C)C(=O)[C@@](O)(CO)C/C(OC)=C/[C@@H](C)C1 | 0.063 µg/mL (≈ 0.166 µM) | > 64 µg/mL | 4 µg/mL (≈ 10.5 µM) | 1 µg/mL (≈ 2.63 µM) | < 0.031 µg/mL | 1 µg/mL (≈ 2.63 µM) | 0.5 µg/mL (≈ 1.31 µM) | –
C=C1/C=C(\C)[C@H](CC)OC(=O)[C@H](C)C(=O)[C@@](O)(CO)C/C(SC)=C/[C@@H](C)C1 | 0.5 µg/mL (≈ 1.26 µM) | > 64 µg/mL | 64 µg/mL (≈ 161 µM) | 64 µg/mL (≈ 161 µM) | 0.063 µg/mL (≈ 0.159 µM) | 16 µg/mL (≈ 40.3 µM) | 32 µg/mL (≈ 80.7 µM) | –
C=C1/C=C(\C)[C@H](CC)OC(=O)[C@H](C)C(=O)[C@@](O)(CO)[C@@H](OC)/C=C/[C@@H](C)C1 | > 64 µg/mL | > 64 µg/mL | > 64 µg/mL | – | – | – | – | –
C=C1/C=C(\C)[C@H](CC)OC(=O)[C@@H](C)C(=O)[C@@](O)(CO)C/C(OC)=C/[C@@H](C)C1 | > 64 µg/mL | > 64 µg/mL | > 64 µg/mL | > 64 µg/mL | – | – | – | –
C[C@@H]1[C@H](O)[C@@H](C)/C=C/C=C/C=C/C=C/C=C/C=C/C=C/[C@H](O[C@@H]2O[C@H](C)[C@@H](O)[C@H](N)[C@@H]2O)C[C@@H]2O[C@](O)(C[C@@H](O)C[C@@H](O)[C@H](O)CC[C@@H](O)C[C@@H](O)CC(=O)O[C@H]1C)C[C@H](O)[C@H]2C(=O)O [AMPHOTERICIN B] | 0.25 µg/mL (≈ 0.271 µM) | 1 µg/mL (≈ 1.08 µM) | 0.25 µg/mL (≈ 0.271 µM) | 0.25 µg/mL (≈ 0.271 µM) | – | – | – | –
OC(Cn1cncn1)(Cn1cncn1)c1ccc(F)cc1F [FLUCONAZOLE] | – | – | – | – | 8 µg/mL (≈ 26.1 µM) | 0.5 µg/mL (≈ 1.63 µM) | 8 µg/mL (≈ 26.1 µM) | > 64 µg/mL
